Assay results reported in patent EP2389922A1, “Cyclohexyl carbamate compounds as anti-ageing actives” (Symrise AG, priority 2010, dated 2011).

Legend:
SIRT1 = SIRT1 assay: stimulation of SIRT1 expression in NHDF cells (immunofluorescence); format: cell-based, human; settings: concentration 30 µM; NHDF cells treated 48 h; mean values of at least 2 independent tests
Description: NHDF cells (normal human dermal fibroblasts) were seeded in 96-well plates. After 24 h cultivation at 37 °C and 5% CO2 in DMEM (Dulbecco's Modified Eagle Medium), cells were treated with test substances for another 48 h. After washing the cells with PBS (phosphate buffered saline), the cells were fixed with paraformaldehyde and permeabilized. Then they were washed again and blocked with BSA (bovine serum albumen), followed by incubation with […]. After extensive washing, the fluorescence is measured in a microplate reader and fluorescence images were recorded on a fluorescence microscope with an attached […]. The stimulation of SIRT1 expression was calculated by: StimulationofSIRT1expression[%] = ((RFUtestesubstance−RFUbackground)/(RFUcontrol−RFUbackground)×100)−100 [formula] RFU test substance = relative fluorescent units of the wells with test substance, stained completely RFU control = relative fluorescent units of the wells without test substance, stained completely RFU background = relative fluorescent units of the wells without test substance, stained only with secondary antibody. Table Example 2: Stimulation of SIRT1 expression by the individual substances (mean values of at least 2 independent tests)

yeast = settings: cited from earlier work
fish = settings: cited from earlier work
isolated 20S proteasome = isolated 20S proteasome (Homo sapiens, UniProt P28074); experiment: Measurement of proteasome activity using isolated proteasome (chymotrypsin-like activity, MCA liberation); format: biochemical; settings: mean values of 3 independent tests
Description: The method used herein to investigate the proteasome stimulating activity of a substance is based on the measurement of the 20S proteasome core activity. To detect this activity, the isolated 20S proteasome reacts with an oligopeptide, which is bound to a fluorochrome. With its chymotrypsin-like proteolytic activity, the proteasome degrades the oligopeptide and liberates the fluorochrome. For this assay 4-methyl-coumaryl-amide (MCA) was used as fluorochrome. Liberation of MCA correlates linearly with the proteasome activity. MCA wass detected using an excitation of 360 nm and an emission of 460 nm.
For interpretation, the measured proteasome activities / intensities of fluorescence were compared with pure MCA standards at distinct concentrations.
Two different controls were used for each assay. One "ordinary" control (C) which consisted of isolated proteasome alone, and a DMSO-control (DC). DC was necessary because all substances were diluted in DMSO. Proteasome activity was calculated relative to DMSO control (0 mM). Table Example 3.1: Measurement of proteasome activity of BIO1272 using isolated proteasome (mean values of 3 independent tests)

proteasome = target: T1, proteasome (Homo sapiens, UniProt P28074); experiment: Measurement of proteasome activity using cell lysates (HaCaT cells, MCA liberation); format: biochemical; settings: HaCaT cell lysate, relative to DMSO control (0 mM = 100 %), mean values of 3 independent tests
T1 construct: endogenous in cells; host or cells: HaCaT human keratinocytes (cell lysate)
Description: To determine proteasome activity in cell lysate, human keratinocyte cell lines (HaCaT cells) were seeded out in Petri-dishes (area: 22.1 cm^2) and harvested when they reached confluence. Isolation of the pure cell lysate included cell washing, incubation and homogenization in lysis buffer (250mM sucrose, 25mM HEPES (4-(2-hydroxyethyl)-1-piperazineethanesulfonic acid), 10mM MgCl2*6H2O, 1.3mM EDTA) and final cell lysis with liquid nitrogen. Determination of proteasome activity is based on the liberation of MCA and the corresponding fluorescence like described above in example 3.1. Proteasome activity was calculated relative to DMSO control (0 mM). Table Example 3.2: Measurement of proteasome activity of BIO1272 using cellular extracts (mean values of 3 independent tests)

CCCCNC(=O)O[C@@H]1C[C@H](C)CC[C@H]1C(C)C [BIO1267, n-Butyl-carbamic acid (1R,2S,5R)-2-isopropyl-5-methyl-cyclohexyl ester]
Stimulation of SIRT1 expression (SIRT1): 29%

CCc1ccc(NC(=O)OC2CC(C)CC(C)C2)cc1 (stereo not shown) [BIO1823, (4-Ethyl-phenyl)-carbamic acid 3,5-dimethyl-cyclohexyl ester]
Stimulation of SIRT1 expression (SIRT1): 66%

CCCCNC(=O)OC1C(C)CCC(C)C1C (stereo not shown) [BIO1617, n-Butyl-carbamic acid 2,3,6-trimethyl-cyclohexyl ester]
Stimulation of SIRT1 expression (SIRT1): 24%

CCCCCCNC(=O)O[C@@H]1C[C@H](C)CC[C@H]1C(C)C [BIO1271, Hexyl-carbamic acid (1R,2S,5R)-2-isopropyl-5-methyl-cyclohexyl ester]
Stimulation of SIRT1 expression (SIRT1): 66%

CC(C)[C@@H]1CC[C@@H](C)C[C@H]1OC(=O)Nc1ccccc1 [BIO1580, Phenyl-carbamic acid (1R,2S,5R)-2-isopropyl-5-methyl-cyclohexyl ester]
Stimulation of SIRT1 expression (SIRT1): 117%

CCCCNC(=O)OC1CCCCC1C(C)C (stereo not shown) [BIO1841, n-Butyl-carbamic acid 2-isopropyl-cyclohexyl ester]
Stimulation of SIRT1 expression (SIRT1): 14%

Oc1ccc(C=Cc2cc(O)cc(O)c2)cc1 [Resveratrol]
extending lifespan (yeast): 70%
extending lifespan (fish): 60%

CCC(C)NC(=O)OC1CCCC(C)C1C (stereo not shown) [BIO1845, sec-Butyl-carbamic acid 2,3-dimethyl-cyclohexyl ester]
Stimulation of SIRT1 expression (SIRT1): 52%

CC(C)NC(=O)O[C@@H]1C[C@H](C)CC[C@H]1C(C)C [BIO1272, Isopropyl-carbamic acid (1R,2S,5R)-2-isopropyl-5-methyl-cyclohexyl ester]
Relative proteasome activity [%] (isolated 20S proteasome; 5mM BIO1272, relative to DMSO control (0 mM = 100 %)): 125%
Relative proteasome activity [%] (isolated 20S proteasome; 10mM BIO1272, relative to DMSO control (0 mM = 100 %)): 210%
Relative proteasome activity [%] (isolated 20S proteasome; 20mM BIO1272, relative to DMSO control (0 mM = 100 %)): 250%
Relative proteasome activity [%] (proteasome; 5mM BIO1272): 105%
Relative proteasome activity [%] (proteasome; 10mM BIO1272): 120%
Relative proteasome activity [%] (proteasome; 20mM BIO1272): 140%

CCCCNC(=O)O[C@H]1C[C@@H](C)CC[C@@H]1C(C)C [BIO1860, Butyl-carbamic acid (1S,2R,5S)-2-isopropyl-5-methyl-cyclohexyl ester]
Stimulation of SIRT1 expression (SIRT1): 47%
